Values quoted from earlier work as cited in US20150328159A1, “Composition” (Innovata Limited, priority 2009, published 2015).

Substance: hyaluronic acid
- solubility in organic solvents: insoluble
